Data from US20120148690A1, “SKIN BARRIER FUNCTION RECOVERY ACCELERATOR” (SHISEIDO COMPANY, LTD., priority 2010, published 2012).

How the values were obtained:
TRPA1 [1] = target: T1, TRPA1 (Mus musculus, UniProt Q8BLA8); test: Barrier recovery after tape stripping, measured by transepidermal water loss (TEWL); type: in vivo, hairless mice; settings: for Barrier recovery (TEWL recovery rate): local application of 100 μl of 0.5 mM agonist solution immediately after tape stripping
T1 construct: TRPA1 in mouse epidermis was determined to positively immunostained; from tissue; host or cells: skin (epidermis) of living male HR-1 hairless mice
Description: Male hairless mice age 7 to 10 weeks (HR-1, Hoshino Laboratory Animals, Inc., Japan) were used in all experiments. Measurement of skin barrier function, barrier destruction and application of test samples were carried out while the animals were anesthetized with Nembutal.
Permeability barrier function was evaluated on the basis of measurement results for transepidermal water loss (TEWL) obtained using an electrical moisture analyzer (Meeco Inc.) in the manner previously described (Denda, et al., J. Invest. Dermatol., 111, 858-863 (1998): Non-Patent Document 10). In the barrier recovery experiment, treatment was carried out on the animals consisting of repeatedly carrying out tape stripping on skin on both sides of the abdomen until TEWL reached 7 to 10 mg/cm^2/hr. The effects of each treatment were investigated by measuring at two locations on the sides of the abdomen using four mice. Next, TEWL values at the same sites were measured at 1, 3, 6 and 24 hours after barrier destruction. In order to avoid the effects of circadian rhythm, the speed of barrier recovery was investigated immediately after destroying the skin barrier between the hours of 7:00 AM and 8:00 AM. The results for barrier recovery were expressed in terms of recovery rate (%). This is because the degree of barrier destruction varies from day to day. Recovery rate was calculated for each mouse using the following formula:
[(TEWL immediately after barrier destruction−TEWL at indicated time)/(TEWL immediately after barrier destruction−TEWL basal value)]×100%
The effects of TRPA1 agonist on undamaged skin of hairless mice were first evaluated. The skin permeability barrier was destroyed by tape stripping followed immediately thereafter by application of 100 μl of agonist solution. […] Next, the surface of the skin on one side of the abdomen was chilled (10 to 15° C.) for 1 minute using a cold insulator. The other side of the abdomen was maintained at 35 to 36° C. using a heating pad. The temperatures of both sides of the abdomen were monitored with a thermometer (Data Logger Thermometer MT-309, Mother Tool Co., Ltd.).

TRPV1 = TRPV1 (Homo sapiens, UniProt Q8NER1); settings: cited from earlier work
TRPV4 = TRPV4 (Homo sapiens, UniProt Q9HBA0); settings: common TRP inhibitor; TRPV4 activated by heat (36 to 40° C.) or agonist; cited from earlier work
TRPA1 [2] = target: T1, TRPA1; test: Electron microscopy of lamellar body secretion between stratum corneum and stratum granulosum; type: in vivo, hairless mice; settings: pretreatment with antagonist; short exposure to low temperature; FIG. 4c

T1 sequence (Q8BLA8 whole entry): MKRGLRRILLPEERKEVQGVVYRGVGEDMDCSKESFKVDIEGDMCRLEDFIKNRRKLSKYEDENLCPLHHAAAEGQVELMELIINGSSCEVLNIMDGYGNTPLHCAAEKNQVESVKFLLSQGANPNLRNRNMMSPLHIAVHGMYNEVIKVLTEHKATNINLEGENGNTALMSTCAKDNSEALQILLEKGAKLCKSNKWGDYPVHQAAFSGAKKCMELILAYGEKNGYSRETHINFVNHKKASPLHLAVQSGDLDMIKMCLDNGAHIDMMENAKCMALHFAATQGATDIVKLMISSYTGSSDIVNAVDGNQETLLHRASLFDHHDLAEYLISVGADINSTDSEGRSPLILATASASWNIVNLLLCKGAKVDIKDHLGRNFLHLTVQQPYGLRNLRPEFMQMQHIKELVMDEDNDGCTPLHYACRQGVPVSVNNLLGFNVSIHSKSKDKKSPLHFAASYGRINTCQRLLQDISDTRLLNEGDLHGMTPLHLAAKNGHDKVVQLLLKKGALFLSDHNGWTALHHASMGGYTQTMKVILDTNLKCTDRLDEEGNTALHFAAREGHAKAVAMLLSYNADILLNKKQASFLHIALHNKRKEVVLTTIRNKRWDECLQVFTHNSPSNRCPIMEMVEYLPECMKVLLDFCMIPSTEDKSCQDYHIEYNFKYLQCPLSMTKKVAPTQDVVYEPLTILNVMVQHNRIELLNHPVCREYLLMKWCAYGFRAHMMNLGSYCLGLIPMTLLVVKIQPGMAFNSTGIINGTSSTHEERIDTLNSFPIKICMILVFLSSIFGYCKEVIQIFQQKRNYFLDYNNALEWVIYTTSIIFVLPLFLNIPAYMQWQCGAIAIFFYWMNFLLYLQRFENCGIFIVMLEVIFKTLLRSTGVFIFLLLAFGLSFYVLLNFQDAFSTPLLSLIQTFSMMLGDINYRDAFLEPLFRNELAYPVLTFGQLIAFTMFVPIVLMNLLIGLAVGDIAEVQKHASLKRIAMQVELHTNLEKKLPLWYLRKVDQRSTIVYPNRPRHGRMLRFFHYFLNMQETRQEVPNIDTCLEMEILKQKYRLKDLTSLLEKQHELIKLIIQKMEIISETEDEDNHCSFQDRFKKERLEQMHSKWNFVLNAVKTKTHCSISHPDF
Chain of TRPV1 (Q8NER1 whole entry, species assumed): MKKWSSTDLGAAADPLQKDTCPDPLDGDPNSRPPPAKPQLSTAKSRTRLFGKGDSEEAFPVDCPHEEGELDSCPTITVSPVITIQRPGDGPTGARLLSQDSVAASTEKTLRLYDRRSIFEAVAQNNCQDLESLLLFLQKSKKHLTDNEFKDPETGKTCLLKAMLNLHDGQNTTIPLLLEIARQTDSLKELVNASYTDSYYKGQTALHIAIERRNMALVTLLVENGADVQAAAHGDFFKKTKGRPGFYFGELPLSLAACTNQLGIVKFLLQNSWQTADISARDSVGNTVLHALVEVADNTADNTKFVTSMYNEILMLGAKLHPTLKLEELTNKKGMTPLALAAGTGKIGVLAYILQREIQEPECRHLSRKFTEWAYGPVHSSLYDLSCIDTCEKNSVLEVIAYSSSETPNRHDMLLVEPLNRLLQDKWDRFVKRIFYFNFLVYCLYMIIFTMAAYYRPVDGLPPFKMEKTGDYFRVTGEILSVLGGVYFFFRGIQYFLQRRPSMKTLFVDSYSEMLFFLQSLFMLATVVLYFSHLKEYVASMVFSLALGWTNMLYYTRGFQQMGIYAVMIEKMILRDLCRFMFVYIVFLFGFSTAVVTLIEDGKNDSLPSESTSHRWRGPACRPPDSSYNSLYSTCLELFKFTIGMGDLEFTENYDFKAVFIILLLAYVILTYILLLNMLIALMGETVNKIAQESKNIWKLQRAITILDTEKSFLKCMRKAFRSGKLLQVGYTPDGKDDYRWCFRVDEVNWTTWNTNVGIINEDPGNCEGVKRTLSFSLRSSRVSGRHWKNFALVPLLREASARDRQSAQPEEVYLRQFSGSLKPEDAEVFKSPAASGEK
Chain of TRPV4 (Q9HBA0 whole entry, species assumed): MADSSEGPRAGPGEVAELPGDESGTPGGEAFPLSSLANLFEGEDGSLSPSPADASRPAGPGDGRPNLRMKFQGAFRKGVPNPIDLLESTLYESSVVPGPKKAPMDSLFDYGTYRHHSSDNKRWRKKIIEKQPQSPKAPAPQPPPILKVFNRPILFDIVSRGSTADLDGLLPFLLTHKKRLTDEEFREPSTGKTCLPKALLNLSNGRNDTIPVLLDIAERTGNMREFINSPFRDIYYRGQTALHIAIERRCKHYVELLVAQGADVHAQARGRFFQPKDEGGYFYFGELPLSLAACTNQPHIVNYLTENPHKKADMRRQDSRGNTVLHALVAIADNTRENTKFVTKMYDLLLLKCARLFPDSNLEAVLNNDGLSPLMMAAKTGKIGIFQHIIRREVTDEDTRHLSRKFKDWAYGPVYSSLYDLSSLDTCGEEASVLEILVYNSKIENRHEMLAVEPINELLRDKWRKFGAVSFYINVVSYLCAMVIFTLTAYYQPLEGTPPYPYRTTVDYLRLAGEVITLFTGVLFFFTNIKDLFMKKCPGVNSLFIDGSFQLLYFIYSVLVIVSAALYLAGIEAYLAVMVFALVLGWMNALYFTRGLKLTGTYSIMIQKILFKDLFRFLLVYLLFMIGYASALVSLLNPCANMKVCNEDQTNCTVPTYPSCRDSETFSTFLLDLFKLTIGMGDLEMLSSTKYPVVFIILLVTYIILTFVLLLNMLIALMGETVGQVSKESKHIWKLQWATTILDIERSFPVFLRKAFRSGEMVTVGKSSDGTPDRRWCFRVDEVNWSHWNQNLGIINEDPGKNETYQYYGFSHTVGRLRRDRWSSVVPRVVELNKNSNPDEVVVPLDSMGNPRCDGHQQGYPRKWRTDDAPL

For `C=CCN=C=S` [allyl isothiocyanate], the “Barrier recovery (TEWL recovery rate)” value (TRPA1 [1]; FIG. 1) was “accelerated”.
In the case of `COc1cc(CNC(=O)CCCC/C=C/C(C)C)ccc1O` [capsaicin], the “Repair of the skin barrier” value (TRPV1; TRPV1 activated after destroying the skin barrier) is listed as “delayed”.
With `O=CC=Cc1ccccc1` [cinnamaldehyde] the “Barrier recovery (TEWL recovery rate)” value (TRPA1 [1]; FIG. 1) was “accelerated”.
In the case of `N.N.N.N.N.N.N.N.N.N.N.N.N.N.[Cl-].[Cl-].[Cl-].[Cl-].[Cl-].[Cl-].[O-2].[O-2].[Ru+3].[Ru+3].[Ru+4]` [ruthenium red], the “Effect on barrier repair acceleration by TRPV4 activation” value (TRPV4) is given as “inhibited”.
In the case of `CC(C)c1ccc(NC(=O)Cn2cnc3c2c(=O)n(C)c(=O)n3C)cc1` [HC030031, 2-(1,3-dimethyl-2,6-dioxo-1,2,3,6-tetrahydro-7H-purin-7-yl)-N-(4-isopropylphenyl)acetoamide], the “Effect on barrier recovery acceleration by allyl isothiocyanate or cinnamaldehyde” value (TRPA1 [1]; pretreatment with 50 μM antagonist, FIG. 1) is reported as “inhibited”, the “Effect on barrier recovery acceleration by 1 minute of cooling (10 to 15° C.)” value (TRPA1 [1]; pretreatment with antagonist, FIG. 2) is reported as “inhibited” and the “Effect on low-temperature-accelerated secretion of lamellar bodies” value (TRPA1 [2]) is reported as “inhibited”.
For `Oc1cc2c(cc1O)CN(C(=S)NCCc1ccc(Cl)cc1)CCC2` [capsazepine], the “Effect on delay of barrier repair caused by TRPV1 activation” value (TRPV1; TRPV1 antagonist) is given as “inhibited”.
